Entries after “also recorded” stand apart in the source; their conditions may differ. Read-outs that look alike come from different tables or passages of the source.
Legend:
[1] = system: extrinsic pathway of coagulation in normal human plasma; assay: Clotting assay: prothrombin time (PT); format: biochemical
Description: (§1) Clotting assays. All clotting times were measured using an Amelung coagulometer. Activated partial thromboplastin time (aPTT) was measured by incubating the peptides diluted in sterile water at the indicated concentrations, with 100 μL citrated human plasma for 1 minute followed by the addition of 100 μL aPTT reagent (aPTT Automate, Diagnostica Stago) for 60 seconds at 37° C. Clotting was initiated by the addition of 100 μL of a 25-mM CaCl2 solution. In the prothombrin time assay (PT), clotting was initiated by the addition of 100 μL Thrombomax with calcium (PT reagent; Sigma-Aldrich). For measuring the thrombin clotting time (TCT), clotting was initiated by the addition of 100 μL Accuclot thrombin time reagent (TCT reagent; Sigma-Aldrich).

E. coli [2] = assay: Bacterial membrane permeabilization, impermeant probe FITC (fluorescence microscopy); format: cell-based, Escherichia coli; conditions: 30 μM peptide
Description: Fluorescence microscopy. The impermeant probe FITC (Sigma-Aldrich, St. Louis, USA) was used for monitoring of bacterial membrane permeabilization. S. aureus ATCC 29213 bacteria were grown to mid-logarithmic phase in TSB medium. Bacteria were washed and resuspended in buffer (10 mM Tris, pH 7.4, 0.15M NaCl, 5 mM glucose) to yield a suspension of 1×10^7 CFU/ml. 100 μl of the bacterial suspension was incubated with 30 μM of the respective peptides at 30° C. for 30 min. Microorganisms were then immobilized on poly (L-lysine)-coated glass slides by incubation for 45 min at 30° C., followed by addition onto the slides of 200 μl of FITC (6 μg/ml) in buffer and a final incubation for 30 min at 30° C. […] Bacteria were visualized using a Nikon Eclipse TE300 (Nikon, Melville, USA) inverted fluorescence microscope equipped with a Hamamatsu C4742-95 cooled CCD camera (Hamamatsu, Bridgewater, USA) and a Plan Apochromat ×100 objective (Olympus, Orangeburg, USA). […]
Fluorescence microscopy—Fluorescein isothiocyanate (FITC; Sigma-Aldrich, St. Louis, USA) was used for monitoring of bacterial membrane permeabilization. […] Bacteria were visualized using a Nikon Eclipse TE300 (Nikon, Melville, USA) inverted fluorescence microscope equipped with a Hamamatsu C4742-95 cooled CCD camera (Hamamatsu, Bridgewater, USA) and a Plan Apochromat ×100 objective (Olympus, Orangeburg, USA). […]

E. coli [3] = assay: Viable count analysis, E. coli; format: cell-based, Escherichia coli; conditions: for antibacterial activity (cfu) / bactericidal activity in presence of human plasma: 10 mM Tris; for antibacterial activity (cfu): pH 7.4 buffer, dose-response (FIG. 34C); for bactericidal activity in presence of human plasma: 0.15 M NaCl, pH 7.4 with 20% human citrate plasma, versus buffer; for bactericidal activity in heat-inactivated plasma: 20% heat-inactivated human citrate plasma
Description: Viable count analysis. E. coli ATCC 25922 bacteria were grown to mid-logarithmic phase in Todd-Hewitt (TH) medium. Bacteria were washed and diluted in 10 mM Tris, pH 7.4 containing 5 mM glucose. E. coli ATCC 25922 (50 μl; 2×10^6 cfu/ml) were incubated, at 37° C. for 2 h with peptides at the indicated concentrations. Other experiments with the TFPI-peptides and LL-37 were performed in 10 mM Tris, pH 7.4, containing also 0.15 M NaCl, with normal or heat inactivated 20% citrate-plasma (PP). Serial dilutions of the incubation mixture were plated on TH agar, followed by incubation at 37° C. overnight and cfu determination.
Viable count analysis—E. coli strains were grown to mid-logarithmic phase in Todd-Hewitt (TH). P. aeruginosa strains were grown in TH overnight. Bacteria were washed and diluted in 10 mM Tris, pH 7.4 containing 5 mM glucose. 2×10^6 cfu/ml bacteria were incubated in 50 μl, at 37° C. for 2 h with the C-terminal TFPI-derived peptides GGL27, TKR22, or LIK17 at the indicated concentrations. Additional experiments were performed in 10 mM Tris, pH 7.4, containing 0.15 M NaCl, either alone or with 20% normal or heat inactivated citrate-plasma. Serial dilutions of the incubation mixture were plated on TH agar, followed by incubation at 37° C. overnight and cfu determination.

[4] = system: intrinsic pathway of coagulation in normal human plasma; assay: Clotting assay: activated partial thromboplastin time (aPTT); format: biochemical
Description: as §1

Sequence | prothrombin time (PT) [1] | prothrombin time (PT) ([1]; listed as GGL-27) | permeabilization of bacterial membranes (E. coli [2]) | antibacterial activity (cfu) (E. coli [3]) | bactericidal activity in presence of human plasma (E. coli [3]) | bactericidal activity in heat-inactivated plasma (E. coli [3]) | activated partial thromboplastin time (aPTT) [4] | activated partial thromboplastin time (aPTT) ([4]; listed as GGL-27)
GGLIKTKRKRKKQRVKIAYEEIFVKNM [GGL27, C-terminal peptide of TFPI, plasmin-generated] | affected prothrombin time | impairs coagulation in a dose dependent manner | permeabilized bacterial membranes | significant antibacterial activity | enhanced in human plasma; also recorded: significantly enhanced | largely abolished in heat-inactivated plasma; also recorded: abolished the potentiation | impair the intrinsic pathway of coagulation | impairs coagulation in a dose dependent manner
LIKTKRKRKKQRVKIAY [LIK17] | affected prothrombin time |  | permeabilized bacterial membranes | significant antibacterial activity | significantly enhanced | abolished the potentiation | impair the intrinsic pathway of coagulation | 
